Results as given in patent US20240182482A1, “FUSED CYCLIC COMPOUND AS WEE-1 INHIBITOR, PREPARATION METHOD THEREFOR AND USE THEREOF” (WIGEN BIOMEDICINE TECHNOLOGY (SHANGHAI) CO., LTD., priority 2021, published 2024).

Columns and labels:
[1] = system: MIA PaCa-2 cells; assay: In-vitro anti-proliferative activity on MIA PaCa-2 cells (intracellular ATP content); assay type: cell-based; details: compound alone, 72 h after dosing, read-out: IC50 Without GMC, anti-proliferative activity on MIA PaCa-2 cells
Protocol: Example 72. In-Vitro Anti-Proliferative Activity of the Compounds of the Present Invention on MIA PaCa-2 Cells
(§1) MIA PaCa-2 cells were seeded on a 384-well plate at 3000 cells/well. After overnight adherence culture, DMSO or the compounds serially diluted 1:5 from 5 μM were added. The viability was assessed 72 h after dosing by measuring the intracellular ATP content. The inhibition percentage of viable cells by the compounds was calculated by comparing with the DMSO group, and the IC50 value was calculated.

[2] = molecular target: Wee-1 kinase (Homo sapiens (Human), UniProt P30291); assay: Inhibitory activity against Wee-1 kinase (ADP-GLO chemiluminescence); assay type: biochemical; details: 60 min reaction at room temperature
Wee-1 kinase, sequence (P30291 whole entry): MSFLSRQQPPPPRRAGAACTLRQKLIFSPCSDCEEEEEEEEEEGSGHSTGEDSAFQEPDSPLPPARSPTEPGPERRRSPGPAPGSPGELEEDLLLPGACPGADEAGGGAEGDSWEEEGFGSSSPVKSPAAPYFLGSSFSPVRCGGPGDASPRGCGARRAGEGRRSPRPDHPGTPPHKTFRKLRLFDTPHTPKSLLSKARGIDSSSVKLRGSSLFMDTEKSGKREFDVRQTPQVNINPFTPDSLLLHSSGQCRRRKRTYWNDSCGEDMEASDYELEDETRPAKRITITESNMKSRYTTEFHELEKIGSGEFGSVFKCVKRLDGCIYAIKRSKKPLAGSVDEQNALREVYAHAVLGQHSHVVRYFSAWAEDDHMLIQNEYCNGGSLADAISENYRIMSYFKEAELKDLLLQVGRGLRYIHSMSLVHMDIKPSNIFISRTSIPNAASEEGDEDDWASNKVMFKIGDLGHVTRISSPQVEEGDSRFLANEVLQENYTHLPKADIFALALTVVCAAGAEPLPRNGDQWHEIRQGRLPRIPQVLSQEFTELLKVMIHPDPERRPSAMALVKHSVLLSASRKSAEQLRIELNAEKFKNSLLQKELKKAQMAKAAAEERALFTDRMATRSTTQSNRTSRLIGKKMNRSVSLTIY
Protocol: Example 71. Assay of Inhibitory Activity of Compounds of the Present Invention Against Wee-1 Kinase
After the serially diluted compound and an enzyme were mixed, the mixture was incubated at room temperature (25° C.) for 15 min, and then centrifuged at 1000 rpm for 1 min for mixing. 5 μL of substrate was added to start the reaction. After the mixture was reacted at room temperature for 60 min, 5 μL of ADP-GLO reagent was added and the mixture was centrifuged at 1000 rpm for 1 min for mixing. The mixture was subsequently incubated at room temperature for 60 min, and then 10 μL of kinase detection reagent was added. The mixture was incubated for 60 min, and the chemiluminescence was determined. The inhibition percentage of the enzyme activity by the compounds was calculated compared with the DMSO group, and the IC50 values were also calculated.

[3] = system: MIA PaCa-2 cells; assay: In-vitro anti-proliferative activity in combination with gemcitabine (GMC) on MIA PaCa-2 cells; assay type: cell-based
Protocol: Example 73. In-Vitro Anti-Proliferative Activity of the Compounds of the Present Invention in Combination with Gemcitabine (GMC) on MIA PaCa-2 Cells
as §1, with “cells/well, and 20 nM gemcitabine was added.” for “cells/well.”, “100 nM” for “5 μM”

[4] = Homo sapiens, MIA PaCa-2, 72 h, read-out: IC50 GMC (20 nM), anti-proliferative activity on MIA PaCa-2 cells, in combination with 20 nM gemcitabine, 72 h after dosing, ATP content
[5] = read-out: IC50 GMC (20 nM), anti-proliferative activity on MIA PaCa-2 cells, in combination with 20 nM gemcitabine, 72 h after dosing, ATP content

Structure (SMILES) | IC50 ([1]; Homo sapiens, MIA PaCa-2, 72 h) [nM] | IC50 [2] [nM] | IC50 [3, 4] [nM] | IC50 [3, 5] [nM] | IC50 [1] [nM]
[2H]C([2H])([2H])S(=O)(=Nc1cccc(-n2cc(F)c3cnc(Nc4cc5c6c(c4)CN(C)CC6CCC5)nc32)n1)C([2H])([2H])[2H] (stereo not drawn) [Compound 21] | 85 | 1.67 | 1.7 | – | –
CN1Cc2cc(Nc3ncc4c(F)cn(-c5ccc(F)c(N=S(C)(C)=O)n5)c4n3)cc3c2[C@H](CCC3)C1 [Compound 65] | 78 | 1.56 | 1.4 | – | –
CN1Cc2cc(Nc3ncc4c(F)cn(-c5cccc(N=S6(=O)CCC6)n5)c4n3)cc3c2C(CCC3)C1 (stereo not drawn) [Compound 3] | 128 | 2.48 | 2.3 | – | –
[2H]C([2H])([2H])N1Cc2cc(Nc3ncc4c(F)cn(-c5cccc(N=S(C)(C)=O)n5)c4n3)cc3c2[C@H](CCC3)C1 [Compound 67] | 49 | 1.86 | < 1 | 0.8 | –
[2H]C([2H])([2H])N1Cc2cc(Nc3ncc4c(F)cn(-c5ccc(F)c(N=S(C)(C)=O)n5)c4n3)cc3c2[C@H](CCC3)C1 [Compound 68] | 76 | 1.97 | < 1 | 0.9 | –
CN1Cc2cc(Nc3ncc4c(F)cn(-c5cccc(N=S(C)(C)=O)n5)c4n3)cc3c2C(CCC3)C1 (stereo not drawn) [Compound 63] | – | 3.47 | 2.3 | – | 173
CN1Cc2cc(Nc3ncc4c(F)cn(-c5ccc(F)c(N=S(C)(C)=O)n5)c4n3)cc3c2C(CCC3)C1 (stereo not drawn) [Compound 64] | – | 3.36 | – | 2.5 | 179
[2H]C([2H])([2H])S(=O)(=Nc1cccc(-n2cc(F)c3cnc(Nc4cc5c6c(c4)CN(C)C[C@H]6CCC5)nc32)n1)C([2H])([2H])[2H] [Compound 69] | – | 1.54 | – | – | –
CN1Cc2cc(Nc3ncc4c(F)cn(-c5cccc(N=S6(=O)CCCC6)n5)c4n3)cc3c2C(CCC3)C1 (stereo not drawn) [Compound 4] | 115 | 2.47 | 2.1 | – | –
CCN1Cc2cc(Nc3ncc4c(C)cn(-c5cccc(N=S(C)(C)=O)n5)c4n3)cc3c2C(CCC3)C1 (stereo not drawn) [Compound 28] | 172 | 2.33 | 1.3 | – | –
CN1Cc2cc(Nc3ncc4c(F)cn(-c5cccc(N=S6(=O)CCOCC6)n5)c4n3)cc3c2C(CCC3)C1 (stereo not drawn) [Compound 5] | – | 2.79 | – | 2.4 | 139
CN1Cc2cc(Nc3ncc4c(F)cn(-c5ccc(F)c(N=S(C)(C)=O)n5)c4n3)cc3c2C(CCC3)C1 (stereo not drawn) [Compound 23] | 155 | 2.05 | – | 1.2 | –
CN1Cc2cc(Nc3ncc4c(F)cn(-c5cccc(N=S(C)(C)=O)n5)c4n3)cc3c2[C@H](CCC3)C1 [Compound 66] | 28 | 1.19 | < 1 | 0.9 | –
CN1Cc2cc(Nc3ncc4c(F)cn(-c5cccc(N=S(C)(C)=O)n5)c4n3)cc3c2C(CCC3)C1 (stereo not drawn) [Compound 1] | – | < 2 | – | 1.7 | 37
CCS(=O)(CC)=Nc1cccc(-n2cc(F)c3cnc(Nc4cc5c6c(c4)CN(C)CC6CCC5)nc32)n1 (stereo not drawn) [Compound 2] | 106 | 1.96 | 2.4 | – | –
CN1Cc2cc(Nc3ncc4c(F)cn(-c5cccc(P(C)(C)=O)n5)c4n3)cc3c2C(CCC3)C1 (stereo not drawn) [Compound 14] | 331 | 2.71 | 1.3 | – | –
C=CCn1c(=O)c2cnc(Nc3ccc(N4CCN(C)CC4)cc3)nc2n1-c1cccc(C(C)(C)O)n1 [MK-1775, reference compound] | 904 | – | 24.2 | – | –
[2H]C([2H])([2H])S(=O)(=Nc1nc(-n2cc(F)c3cnc(Nc4cc5c6c(c4)CN(C)C[C@H]6CCC5)nc32)ccc1F)C([2H])([2H])[2H] [Compound 70] | 89 | 1.84 | 1.1 | – | –
CN1Cc2cc(Nc3ncc4c(F)cn(-c5ccc(Cl)c(N=S(C)(C)=O)n5)c4n3)cc3c2C(CCC3)C1 (stereo not drawn) [Compound 24] | 184 | 2.49 | 1.6 | – | –
